The source of these data is ChEMBL document CHEMBL1150537, “Synthesis of echiguanine analogs and their ribofuranosyl glycosides that inhibit phosphatidylinositol 4-kinase” (Bioorg Med Chem Lett, 1997).

Converted amounts (≈) assume the structure as drawn.

The first test has as its target T1, Phosphatidylinositol 4-kinase, PI4K (Homo sapiens, UniProt Q9BTU6+Q8TCG2+Q9UBF8+P42356). The experiment in a line: Inhibition of Phosphatidylinositol 4-kinase of human epidermoid carcinoma A431 cells (Not prepared). The test is classed as cell-based. The conditions noted are these: a-431.
For orientation: IC50 means the point on the concentration scale where inhibition reaches its midpoint. With `NC(=O)NCCCNC(=O)c1c[nH]c2nc(N)nc(O)c12`, the IC50 result is recorded as “Not prepared”.
`N=C(S)CCNC(=O)c1c[nH]c2nc(N)nc(O)c12`: the IC50 result is listed as “Not prepared”.

A further test deals with T1, Phosphatidylinositol 4-kinase, PI4K. Description: Inhibition of Phosphatidylinositol 4-kinase of human epidermoid carcinoma A431 cells. The conditions noted are these: a-431. Format: cell-based.
`N#CCCNC(=O)c1c[nH]c2nc(N)nc(O)c12` gave an IC50 of 0.45 µg/mL (≈ 1.83 µM).
Same read-out and setting: under `N=C(N)NCCCNC(=O)c1c[nH]c2nc(N)nc(O)c12` stands 0.15 µg/mL (≈ 0.513 µM).
Compound `NC(=O)CCNC(=O)c1c[nH]c2nc(N)nc(O)c12` gave an IC50 of 0.02 µg/mL (≈ 0.0757 µM).
The same measure, in the same setting: the value for `COC(=O)CCNC(=O)c1c[nH]c2nc(N)nc(O)c12` was 0.3 µg/mL (≈ 1.07 µM).
Compound `N=C(N)CCNC(=O)c1cn(C2O[C@H](CO)C(O)[C@H]2O)c2nc(N)nc(O)c12` (single isomer, unassigned) showed an IC50 of 100 µg/mL (≈ 253 µM).
In the case of `NCCCNC(=O)c1cn(C2O[C@H](CO)C(O)[C@H]2O)c2nc(N)nc(O)c12` (single isomer, unassigned), the IC50 is more than 100 µg/mL.
Consider `N=C(S)CCNC(=O)c1cn(C2O[C@H](CO)C(O)[C@H]2O)c2nc(N)nc(O)c12` (single isomer, unassigned), for which the IC50 was more than 100 µg/mL.
Regarding `NC(=O)CCNC(=O)c1cn(C2O[C@H](CO)C(O)[C@H]2O)c2nc(N)nc(O)c12` (single isomer, unassigned), the half-maximal inhibitory concentration (IC50) worked out at 2.4 µg/mL (≈ 6.06 µM).
Compound `NC(=O)NCCCNC(=O)c1cn(C2O[C@H](CO)C(O)[C@H]2O)c2nc(N)nc(O)c12` (single isomer, unassigned) displayed an IC50 of 1 µg/mL (≈ 2.35 µM).
`N=C(N)NCCCNC(=O)c1cn(C2O[C@H](CO)C(O)[C@H]2O)c2nc(N)nc(O)c12` (single isomer, unassigned) had an IC50 of 7.5 µg/mL (≈ 17.7 µM).
Consider `COC(=O)CCNC(=O)c1cn(C2O[C@H](CO)C(O)[C@H]2O)c2nc(N)nc(O)c12` (single isomer, unassigned), for which the half-maximal inhibitory concentration (IC50) is 25 µg/mL (≈ 60.8 µM).
For `N#CCCNC(=O)c1cn(C2O[C@H](CO)C(O)[C@H]2O)c2nc(N)nc(O)c12` (single isomer, unassigned), the 50% inhibitory concentration (IC50) is more than 100 µg/mL.
The same measure, in the same setting: the value for `NCCCNC(=O)c1c[nH]c2nc(N)nc(O)c12` [ECHIGUANINE B] was 0.18 µg/mL (≈ 0.719 µM).
